The target of assay [1] is T1, SYK (Homo sapiens, UniProt P43405).
T1 construct: Purified full-length human SYK, ZAP70, PIM1, PYK2; purchased Carna Biosciences
The assay is described as follows: Kinase inhibition assay: SYK. In kind it is biochemical. The conditions noted are these: at 1 μM concentration. As to the method:
(§1) Compounds of the present invention were tested for their capacity to inhibit a kinase panel which includes, but are not limited to, spleen tyrosine kinase (SYK), zeta-chain-associated protein kinase 70 (ZAP70), PTK2B protein tyrosine kinase 2 (PYK2), focal adhesion kinase (FAK), provirus integration of maloney kinase 1 (PIM1), rearranged during transfection kinase (RET), Fms-like tyrosine kinase 3 (FLT3), Janus kinase 2 (JAK2), and leucine-rich repeat kinase 2 (LRRK2).
(§2) Inhibition of SYK, ZAP70, PYK2, FAK, PIM1, RET, FLT3, JAK2 and LRRK2 Kinase Activity
(§3) Compounds of the invention were initially diluted to 10 mM in 100% DMSO (CALBIOCHEM™) for storage and made into kinase buffer solution to create a compound concentration ranging from 1 uM and 10 uM. Serial dilutions of compounds of the invention were dispensed into a 96-well plate (GREINER BIOSCIENCES™) at 6 μL each. Purified full-length human SYK, ZAP70, PIM1, PYK2 and truncated human FAK, RET, FLT3, JAK2, and LRRK2 (CARNA BIOSCIENCES™) were diluted in kinase buffer and added to the compound solutions and pre-incubated for 30 minutes at room temperature (1 hour for PYK2). […] The reaction mixture was incubated for 1 hour (2 hours for PYK2). Following the incubation, the stop solution made with EDTA, water, and Lance detection buffer ([…]™) was added (12μL each) to stop phosphorylation. […] The IC50 value of test compound was calculated at Gradpad Prism 5 unless specified otherwise.

Assay [2] concerns the target T2, ZAP70 (Homo sapiens, UniProt P43403).
T2 construct: Purified full-length human SYK, ZAP70, PIM1, PYK2; purchased Carna Biosciences
T2 sequence (P43403 1-619): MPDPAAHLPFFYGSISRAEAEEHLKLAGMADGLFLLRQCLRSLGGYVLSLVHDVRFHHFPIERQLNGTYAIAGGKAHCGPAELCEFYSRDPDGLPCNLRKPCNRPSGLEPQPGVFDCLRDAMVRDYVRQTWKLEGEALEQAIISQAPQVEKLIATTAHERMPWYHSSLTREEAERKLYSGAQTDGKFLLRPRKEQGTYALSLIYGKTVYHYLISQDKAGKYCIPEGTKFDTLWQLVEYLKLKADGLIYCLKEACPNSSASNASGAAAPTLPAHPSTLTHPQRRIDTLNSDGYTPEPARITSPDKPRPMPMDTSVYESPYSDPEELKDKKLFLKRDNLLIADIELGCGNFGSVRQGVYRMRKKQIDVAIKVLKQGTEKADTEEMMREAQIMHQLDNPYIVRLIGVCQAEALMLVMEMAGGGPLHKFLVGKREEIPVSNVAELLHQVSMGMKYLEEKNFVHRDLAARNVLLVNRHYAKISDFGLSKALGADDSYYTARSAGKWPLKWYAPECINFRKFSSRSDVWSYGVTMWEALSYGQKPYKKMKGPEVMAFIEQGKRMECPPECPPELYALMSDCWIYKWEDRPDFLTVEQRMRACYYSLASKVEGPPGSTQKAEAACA
Description: Kinase inhibition assay: ZAP70. It counts as biochemical. The conditions noted are these: at 1 μM concentration. How it is done:
as §1, §2, §3

The target in assay [3] is T3, PYK2 (Homo sapiens, UniProt Q14289).
T3 construct: Purified full-length human SYK, ZAP70, PIM1, PYK2; purchased Carna Biosciences
T3 sequence (Q14289 whole entry): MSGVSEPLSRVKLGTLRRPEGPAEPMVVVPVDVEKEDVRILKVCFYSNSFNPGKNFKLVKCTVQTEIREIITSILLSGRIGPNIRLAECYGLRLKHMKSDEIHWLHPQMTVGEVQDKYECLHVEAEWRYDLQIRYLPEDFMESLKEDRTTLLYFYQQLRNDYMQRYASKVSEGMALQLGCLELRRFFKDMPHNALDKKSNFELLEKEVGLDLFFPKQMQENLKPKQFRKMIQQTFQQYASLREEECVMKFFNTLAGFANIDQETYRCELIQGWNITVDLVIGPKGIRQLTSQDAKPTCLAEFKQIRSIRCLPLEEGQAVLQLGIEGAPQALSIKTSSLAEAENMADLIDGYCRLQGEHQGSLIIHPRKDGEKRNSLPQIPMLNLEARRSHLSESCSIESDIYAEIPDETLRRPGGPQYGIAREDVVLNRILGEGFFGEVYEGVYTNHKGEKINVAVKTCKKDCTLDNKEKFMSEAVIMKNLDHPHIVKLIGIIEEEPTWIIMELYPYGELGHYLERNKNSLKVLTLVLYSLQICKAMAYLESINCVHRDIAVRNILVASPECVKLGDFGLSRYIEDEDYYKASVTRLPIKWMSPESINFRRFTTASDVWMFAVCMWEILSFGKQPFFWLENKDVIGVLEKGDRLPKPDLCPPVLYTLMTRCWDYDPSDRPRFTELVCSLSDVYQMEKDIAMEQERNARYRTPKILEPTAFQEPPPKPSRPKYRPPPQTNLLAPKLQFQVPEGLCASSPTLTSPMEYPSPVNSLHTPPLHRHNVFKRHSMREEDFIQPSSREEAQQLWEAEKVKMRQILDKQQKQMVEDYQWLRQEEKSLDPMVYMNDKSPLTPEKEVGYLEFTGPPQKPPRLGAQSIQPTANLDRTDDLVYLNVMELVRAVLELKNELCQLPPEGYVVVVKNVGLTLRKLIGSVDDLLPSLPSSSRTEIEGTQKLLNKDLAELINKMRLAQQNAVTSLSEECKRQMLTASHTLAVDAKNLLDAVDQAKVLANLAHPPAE
The assay is described as follows: Kinase inhibition assay: PYK2. It counts as biochemical. The conditions noted are these: at 1 μM concentration. How it is done:
as §1, §2, §3

For assay [4], the target named is T4, FAK (Homo sapiens, UniProt Q05397).
T4 construct: truncated human FAK, RET, FLT3, JAK2, and LRRK2; purchased Carna Biosciences
T4 sequence (Q05397 376-1052 limits assumed): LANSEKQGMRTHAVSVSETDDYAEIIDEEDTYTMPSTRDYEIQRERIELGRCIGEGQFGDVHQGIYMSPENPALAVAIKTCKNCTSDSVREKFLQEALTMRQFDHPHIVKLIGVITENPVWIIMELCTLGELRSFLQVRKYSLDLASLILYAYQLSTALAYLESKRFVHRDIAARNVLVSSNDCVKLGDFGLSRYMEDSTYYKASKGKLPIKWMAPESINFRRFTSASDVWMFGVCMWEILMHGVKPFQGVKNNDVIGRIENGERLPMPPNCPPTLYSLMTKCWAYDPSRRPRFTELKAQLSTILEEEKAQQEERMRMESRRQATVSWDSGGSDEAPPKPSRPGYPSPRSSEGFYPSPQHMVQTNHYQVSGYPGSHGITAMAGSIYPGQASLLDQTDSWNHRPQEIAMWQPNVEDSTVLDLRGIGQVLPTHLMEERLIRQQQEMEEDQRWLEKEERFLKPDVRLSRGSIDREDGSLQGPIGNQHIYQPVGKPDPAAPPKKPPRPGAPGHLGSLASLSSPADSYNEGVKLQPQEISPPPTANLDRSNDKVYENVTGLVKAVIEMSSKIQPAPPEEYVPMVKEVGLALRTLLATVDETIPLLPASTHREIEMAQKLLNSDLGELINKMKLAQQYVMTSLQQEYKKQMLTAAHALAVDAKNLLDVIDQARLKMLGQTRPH
Description: Kinase inhibition assay: FAK. The conditions noted are these: at 1 μM concentration. It counts as biochemical. As to the method: as §1, §2, §3

For assay [5], the target named is T5, PIM1 (Homo sapiens, UniProt P11309).
T5 construct: Purified full-length human SYK, ZAP70, PIM1, PYK2; purchased Carna Biosciences
T5 sequence (P11309 whole entry): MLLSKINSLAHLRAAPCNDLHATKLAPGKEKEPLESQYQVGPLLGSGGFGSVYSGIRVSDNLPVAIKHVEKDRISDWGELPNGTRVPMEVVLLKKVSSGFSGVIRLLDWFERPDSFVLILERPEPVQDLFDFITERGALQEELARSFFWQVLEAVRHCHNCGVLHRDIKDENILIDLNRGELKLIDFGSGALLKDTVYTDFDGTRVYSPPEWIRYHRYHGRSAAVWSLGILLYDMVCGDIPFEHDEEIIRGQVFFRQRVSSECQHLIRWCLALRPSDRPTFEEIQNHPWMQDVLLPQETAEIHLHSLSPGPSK
The assay is described as follows: Kinase inhibition assay: PIM1. It counts as biochemical. The following applies: at 1 μM concentration. How it is done: as §1, §2
Compounds of the invention were initially diluted to 10 mM in 100% DMSO (CALBIOCHEM™) for storage and made into kinase buffer solution to create a compound concentration ranging from 1 uM and 10 uM. Serial dilutions of compounds of the invention were dispensed into a 96-well plate (GREINER BIOSCIENCES™) at 6 μL each. Purified full-length human SYK, ZAP70, PIM1, PYK2 and truncated human FAK, RET, FLT3, JAK2, and LRRK2 (CARNA BIOSCIENCES™) were diluted in kinase buffer and added to the compound solutions and pre-incubated for 30 minutes at room temperature (1 hour for PYK2). […] The reaction mixture was incubated for 1 hour (2 hours for PYK2). Following the incubation, the stop solution made with EDTA, water, and Lance detection buffer ([…]™) was added (12μL each) to stop phosphorylation. […] Substrate phosphorylation was a function of the 665 nm emission measured following the addition of the detection solution and 50 minutes of incubation. The IC50 value of test compound was calculated at Gradpad Prism 5 unless specified otherwise.

For assay [6], the target named is T6, RET (Homo sapiens, UniProt P07949).
T6 construct: truncated human FAK, RET, FLT3, JAK2, and LRRK2; purchased Carna Biosciences
T6 sequence (P07949 658-1114 limits assumed): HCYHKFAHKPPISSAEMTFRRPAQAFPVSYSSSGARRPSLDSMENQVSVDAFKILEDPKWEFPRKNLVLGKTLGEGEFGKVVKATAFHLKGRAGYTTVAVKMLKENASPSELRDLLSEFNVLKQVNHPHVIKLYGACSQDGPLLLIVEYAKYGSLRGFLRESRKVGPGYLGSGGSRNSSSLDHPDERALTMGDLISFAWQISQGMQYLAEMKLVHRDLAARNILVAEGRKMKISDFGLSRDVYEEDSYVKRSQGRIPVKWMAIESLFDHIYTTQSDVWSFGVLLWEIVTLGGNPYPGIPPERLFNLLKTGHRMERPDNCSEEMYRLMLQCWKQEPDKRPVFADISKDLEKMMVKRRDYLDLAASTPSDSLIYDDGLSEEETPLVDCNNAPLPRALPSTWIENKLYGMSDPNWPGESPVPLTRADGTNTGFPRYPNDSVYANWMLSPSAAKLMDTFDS
The assay is described as follows: Kinase inhibition assay: RET. In kind it is biochemical. How it is done: as §1, §2, §3

Assay [7] deals with T7, FLT3 (Homo sapiens, UniProt P36888).
T7 construct: truncated human FAK, RET, FLT3, JAK2, and LRRK2; purchased Carna Biosciences
T7 sequence (P36888 564-993 limits assumed): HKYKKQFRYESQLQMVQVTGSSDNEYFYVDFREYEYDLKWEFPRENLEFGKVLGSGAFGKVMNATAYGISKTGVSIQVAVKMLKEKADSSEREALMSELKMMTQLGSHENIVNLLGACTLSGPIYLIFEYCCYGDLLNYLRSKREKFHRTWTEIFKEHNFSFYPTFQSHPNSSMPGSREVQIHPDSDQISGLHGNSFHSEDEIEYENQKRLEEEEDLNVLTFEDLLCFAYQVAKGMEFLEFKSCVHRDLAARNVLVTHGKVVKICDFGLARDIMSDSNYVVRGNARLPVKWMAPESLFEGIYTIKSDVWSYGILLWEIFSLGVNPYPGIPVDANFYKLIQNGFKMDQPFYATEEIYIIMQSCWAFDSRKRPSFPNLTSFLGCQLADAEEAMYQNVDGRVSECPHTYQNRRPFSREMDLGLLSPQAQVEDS
Description: Kinase inhibition assay: FLT3. In kind it is biochemical. As to the method: as §1, §2, §3

Assay [8] has as its system MTC-TT. Description: Cell viability assay: RET inhibition. In kind it is cell-based, human. The conditions noted are these: for IC50: Homo sapiens, 48 h, two days after drug treatment; for inhibition level compared with Vandetinib and Sunitinib: RET induced cancer cell line (MTC-TT). How it is done:
To address RET dependent cell viability, the medullary thyroid carcinoma cell line, MTC-TT representing MEN2A was utilized to test compounds of the present invention. MTC-TT were cultured at RPMI containing 15 bovine calf serum (Hyclon™ of Thermo™) and supplemented with 2 mM L-Glutamine The cells were grown at a density of 5×10^4 cells/100 μL/well in duplicate in 96-well plates for one day and treated with different concentrations of test compound. Cell viability for MTC-TT two days after drug treatment was measured by Cell Titer 96 Aqueous One Solution Reagent (Promega™) according to the manufacture instructions.

The target in assay [9] is JAK2 (Homo sapiens, UniProt O60674). The assay is described as follows: Kinase inhibition assay: JAK2. In kind it is biochemical. Also on record: truncated human FAK, RET, FLT3, JAK2, and LRRK2; purchased Carna Biosciences. How it is done:
as §1, §2, §3

The target of assay [10] is T8, LRRK2 (Homo sapiens, UniProt Q5S007).
T8 construct: truncated human FAK, RET, FLT3, JAK2, and LRRK2; purchased Carna Biosciences
T8 sequence (Q5S007 970-2527 limits assumed): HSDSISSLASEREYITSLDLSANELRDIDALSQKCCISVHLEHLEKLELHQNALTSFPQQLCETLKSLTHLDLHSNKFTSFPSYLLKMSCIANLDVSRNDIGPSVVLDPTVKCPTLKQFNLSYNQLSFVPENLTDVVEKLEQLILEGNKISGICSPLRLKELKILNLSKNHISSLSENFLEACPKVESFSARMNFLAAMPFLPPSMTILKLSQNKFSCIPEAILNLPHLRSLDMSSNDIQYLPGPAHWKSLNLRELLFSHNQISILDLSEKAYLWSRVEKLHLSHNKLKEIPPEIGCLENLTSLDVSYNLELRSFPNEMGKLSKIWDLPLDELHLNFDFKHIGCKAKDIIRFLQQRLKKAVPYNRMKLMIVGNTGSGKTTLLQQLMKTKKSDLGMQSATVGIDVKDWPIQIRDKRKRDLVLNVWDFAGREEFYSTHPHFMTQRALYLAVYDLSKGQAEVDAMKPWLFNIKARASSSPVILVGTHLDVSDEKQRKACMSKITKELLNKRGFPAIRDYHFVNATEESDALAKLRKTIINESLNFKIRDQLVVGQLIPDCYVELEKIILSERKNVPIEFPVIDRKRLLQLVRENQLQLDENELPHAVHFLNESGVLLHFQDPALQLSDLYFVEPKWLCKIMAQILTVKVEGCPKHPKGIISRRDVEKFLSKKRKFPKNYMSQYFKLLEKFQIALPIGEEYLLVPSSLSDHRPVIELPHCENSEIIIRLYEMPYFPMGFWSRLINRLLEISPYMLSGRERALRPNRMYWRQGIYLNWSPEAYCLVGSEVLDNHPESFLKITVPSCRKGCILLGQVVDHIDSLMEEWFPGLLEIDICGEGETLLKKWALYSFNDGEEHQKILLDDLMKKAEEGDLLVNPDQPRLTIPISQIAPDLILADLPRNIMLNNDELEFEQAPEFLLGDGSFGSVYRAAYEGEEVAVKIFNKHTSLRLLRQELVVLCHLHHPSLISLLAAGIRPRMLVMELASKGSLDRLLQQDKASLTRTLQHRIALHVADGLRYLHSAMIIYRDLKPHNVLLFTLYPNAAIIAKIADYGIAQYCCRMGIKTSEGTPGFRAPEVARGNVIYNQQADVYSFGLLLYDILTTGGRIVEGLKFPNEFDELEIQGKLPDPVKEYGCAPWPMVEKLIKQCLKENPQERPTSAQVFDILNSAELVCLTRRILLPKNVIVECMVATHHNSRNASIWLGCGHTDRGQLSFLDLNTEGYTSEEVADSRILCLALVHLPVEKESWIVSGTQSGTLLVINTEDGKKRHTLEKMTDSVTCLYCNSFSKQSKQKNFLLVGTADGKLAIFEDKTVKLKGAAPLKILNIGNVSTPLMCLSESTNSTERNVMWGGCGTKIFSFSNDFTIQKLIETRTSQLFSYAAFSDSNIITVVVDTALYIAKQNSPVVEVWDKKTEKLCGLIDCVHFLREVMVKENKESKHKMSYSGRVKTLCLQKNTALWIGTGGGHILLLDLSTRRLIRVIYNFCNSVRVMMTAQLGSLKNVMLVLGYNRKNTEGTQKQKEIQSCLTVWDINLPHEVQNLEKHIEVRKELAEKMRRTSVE
Description: Kinase inhibition assay: LRRK2. In kind it is biochemical. As to the method: as §1, §2, §3

By inhibition is commonly meant the relative decrease from the control value, in per cent. Low values mean little suppression, high ones strong suppression. By IC50 is commonly meant the concentration needed to halve the response being measured. The low end stands for greater potency in that assay, the high end for weaker potency in that assay.

Sequence of JAK2 (O60674 826-1132 limits assumed): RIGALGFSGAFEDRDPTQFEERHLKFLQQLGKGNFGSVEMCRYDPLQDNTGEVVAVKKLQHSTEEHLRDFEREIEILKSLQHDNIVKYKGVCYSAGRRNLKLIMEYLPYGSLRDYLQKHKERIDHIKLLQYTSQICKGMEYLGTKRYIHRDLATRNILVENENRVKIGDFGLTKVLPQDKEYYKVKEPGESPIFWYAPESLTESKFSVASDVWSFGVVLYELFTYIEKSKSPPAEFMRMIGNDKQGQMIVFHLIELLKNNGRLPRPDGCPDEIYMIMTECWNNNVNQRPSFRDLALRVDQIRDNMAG

Regarding `Cc1cc(C)cc(Nc2ncc(F)c(-n3cc(C)c(CO)c3)n2)c1` [Compound 14, (1-(2-(3,5-dimethyl-phenylamino)-5-fluoro-pyrimidin-4-yl)-4-methyl-1H-pyrrol-3-yl)methanol], the inhibition at 1 µM was 82.7% in assay [1]; 41.3% in assay [2]; 30.6% in assay [3]; 36.9% in assay [4]; 21.9% in assay [5].
As to `COc1cc(Nc2ncc(F)c(-n3cc(C)c(CO)c3)n2)cc(OC)c1` [Compound 16, (1-(2-(3,5-dimethoxy-phenylamino)-5-fluoro-pyrimidin-4-yl)-4-methyl-1H-pyrrol-3-yl)methanol], the inhibition at 1 µM in [1] stood at 80.7%; in assay [2], 31.9%; in assay [3] it was 84.9%; in [4], 34.1%.
On to `Cc1cn(-c2nc(Nc3cc(C)c(OCCO)c(C)c3)ncc2C)cc1CN(C)C` [Compound 121, 2-(4-(4-(3-((dimethylamino)methyl)-4-methyl-1H-pyrrol-1-yl)-5-methylpyrimidin-2-ylamino)-2,6-dimethylphenoxy)ethanol], for which the concentration for half-maximal inhibition (IC50) worked out at 2.3 nM in assay [6], 1.7 nM in assay [7], 34.6 nM in assay [8] and 2.5 nM in assay [9]. The “inhibition level compared with Vandetinib and Sunitinib” value in [8] is “greater than those exhibited by Vandetinib and Sunitinib”.
On to `Cc1cc(C)cc(Nc2ncc(F)c(-n3cc(C(=O)N4CC[C@@H](O)C4)c(C)n3)n2)c1` [Compound 38, (R)-(1-(2-(3,5-dimethylphenylamino)-5-fluoropyrimidin-4-yl)-3-methyl-1H-pyrazol-4-yl)(3-hydroxypyrrolidin-1-yl)methanone], for which the inhibition at 1 µM in [1] is 41.8%; in assay [2], 19.3%; in assay [3], 18%; in assay [4], 17.7%; in assay [5], 3.7%.
On to `COc1cc(Nc2ncc(C)c(-n3cc(C)c(CN4CCN(CCO)CC4)c3)n2)cc(OC)c1OC` [Compound 40, 2-(4-((4-methyl-1-(5-methyl-2-(3,4,5-trimethoxyphenylamino)pyrimidin-4-yl)-1H-pyrrol-3-yl)methyl)piperazin-1-yl)ethanol], for which the IC50 was 10.2 nM in assay [6]; 0.17 nM in assay [7]; 275 nM in assay [10]; 78.4 nM in assay [8]; 3.7 nM in assay [9]. Moreover, the “inhibition level compared with Vandetinib and Sunitinib” value in assay [8] was “greater than those exhibited by Vandetinib and Sunitinib”.
